# Earlier results as cited in patent US20120004294A1, “ANTITUMOR COMBINATION COMBINING AVE8062 AND DOCETAXEL” (SANOFI, priority 2008, published 2012).
# Conditions: AVE8062A alone, at too high a dose (weekly doses 4.5-30 mg/m^2 studied)
compound,measurement,value
COc1ccc(/C=C\c2cc(OC)c(OC)c(OC)c2)cc1NC(=O)[C@@H](N)CO [AVE8062A],Cardiotoxicity,cardiotoxicity was observed
